US7091185B2, “Periodic antimicrobial peptides” (Dow Global Technologies Inc., priority 2003, dated 2006)
Read-outs that look alike come from different tables or passages of the source. Where no end group is shown, it is not given here.

Legend:
E. coli ATCC 2592 = details: ATCC 2592
P. aeruginosa ATCC 10145 = details: ATCC 10145
[1] = system: S. aureus (methicillin resistant) ATCC 33591
C. albicans 10231 = assay type: cell-based; details: 10231
Summary of the method: (§1)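 Broth microdilution per NCCLS, adapted for fungi with Sabouraud Dextrose Broth; KFAK-repeat peptide multimers in two-fold dilutions from 1,000 to 1 μg/ml. Growth by OD620 after overnight incubation; IC50 by sigmoidal fit, in duplicate, repeated at least twice.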

Cr. Neoformans 32045 = assay type: cell-based
Summary of the method: as §1

Red blood cell toxicity = assay type: cell-based; details: red blood cells (RBC); RBCs; concentration required for 50% toxicity; read-out: TX50
Red blood cells (RBC) = assay: Red blood cell toxicity; assay type: cell-based
HeLa cell line = assay: HeLa MTS cellular reduction toxicity assay; assay type: cell-based; details: for TX50: 24 h, MTS
Summary of the method: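 HeLa cells grown 48 h, then exposed to serial 2-fold peptide dilutions for 24 h at 37 °C, 5% CO2. MTS-PMS added for 1 h; absorbance at 490 nm compared with untreated cells. TX50 (50% toxicity concentration) from sigmoidal curve fit.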

P. aeruginosa ATCC 15442 [2] = assay: HMARQ biocidal kill activity; assay type: cell-based; details: P. aeruginosa ATCC 15442 (gram−)
Summary of the method: (§2)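 Inoculated sample matrix (200–300 μL) added to biocide in 96-well blocks alongside untreated controls; for kill-time runs organisms added after biocide. Viable counts by MPN serial 1:10 dilution in TSB with 50 μM resazurin indicator; values are ppm (μg/mL) giving 3.5 log kill versus untreated at 15 min or 24 h.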

Staph. aureus ATCC 6538 [3] = assay: HMARQ biocidal kill activity; assay type: cell-based; details: Staph. aureus ATCC 6538 (gram+)
Summary of the method: as §2

P. aeruginosa ATCC 15442 [4] = assay: HMARQ biocidal kill activity; assay type: cell-based; details: P. aeruginosa ATCC 15442, 15 min, 3 log kill
[5] = system: herpes simplex virus (HSV); details: mixed with a modified lipid octyl-glycerol; compared with magainins and defensins; cited from earlier work
T. vaginalis = details: background statement; cited from earlier work
C. trachomatis = details: background statement; cited from earlier work
P. aeruginosa = details: background statement; cited from earlier work
[6] = system: rat prostate adenocarcinoma; details: rat prostate adenocarcinoma model, cited from earlier work
[7] = system: P. aeruginosa ATCC 15442 / Staph. aureus ATCC 6538; assay: HMARQ biocidal testing; assay type: cell-based; details: summary of Table 6; peptides too small to span the membrane
Method: Biocide efficacy protocols were improved by reducing sample size, organizing the test material into an array format, implementing most probable number (MPN) quantitation and using multi-channel liquid handling equipment. We call the new method “high-throughput microanalysis and rapid quantitation” or “HMARQ.” HMARQ is directly applicable to current industrial efficacy tests such as multi-cycle preservation challenge or time course disinfection tests.
HMARQ is performed in a high throughput plate, such as 96-well microtiter plates. Typical sample volumes have been reduced down to 200 to 300 μL, but can be reduced further if desired. In these samples, no more than 10% of the total volume will be composed of the biocide and organism solution, and all non-matrix additions are normalized for all samples.
The sample matrix is first inoculated with the desired concentration of microorganisms. Inoculated sample matrix is then added to the 96-well assay block containing the biocide(s) under study. Each sample block contains biocide treated samples and untreated control samples (lacking biocide). Once the samples are prepared, the entire block of samples is mixed by vortexing until each sample is homogenous. In general, the study starts once mixing is complete, and samples are removed as required for the analysis. When Kill Time testing (rate of biocide activity) is performed, the microorganisms are added after biocide addition to the samples, allowing for rapid mixing and analysis.
Bacterial concentration (CFU/mL) is determined using the most probable number method (MPN). […] A serial 1:10 dilution will yield a bacterial concentration resolution of 1 log and the log reduction is determined by comparing the concentration of organisms in a treated sample to the concentration of organisms in untreated samples. […]
Using the HMARQ test described above, periodic peptides were generated and tested for Kill Activity. […] Units are expressed as ppm (μg/mL) needed for 3.5 log kill at 15 min or 24 hour and the results are shown below.

Staph. aureus ATCC 6538 [8] = assay: HMARQ biocidal kill activity; assay type: cell-based; details: Staph. aureus ATCC 6538, 15 min, 3 log kill
[9] = S. aureus (methicillin resistant) 33591, gram+

Substance	IC50 (E. coli ATCC 2592)	MIC (E. coli ATCC 2592)	IC50 (P. aeruginosa ATCC 10145)	MIC (P. aeruginosa ATCC 10145)	IC50 ([1]; ATCC 33591)	MIC ([1]; ATCC 33591)	IC50 (C. albicans 10231)	MIC (C. albicans 10231)	IC50 (Cr. Neoformans 32045)	MIC (Cr. Neoformans 32045)	HC50 at 24 h (Red blood cell toxicity)	% kill at 500 μg/ml (HeLa cell line)	TX50 (HeLa cell line)	ppm needed for 3.5 log kill at 24 hr (P. aeruginosa ATCC 15442 [2])	ppm needed for 3.5 log kill at 15 min (Staph. aureus ATCC 6538 [3])	ppm needed for 3.5 log kill at 24 hr (Staph. aureus ATCC 6538 [3])	ppm at 15 min, cell marked (3 log) (P. aeruginosa ATCC 15442 [4])	% kill at 250 μg/ml (Red blood cells (RBC); RBCs, 250 μg/ml)	ppm needed for 3.5 log kill at 15 min (P. aeruginosa ATCC 15442 [2])	biocidal activity (statement) [7]	other results
LKLKLKLKLKLKLKLKLKLKLKLK [LK (12), LK LK LK LK LK LK LK LK LK LK LK LK]	23 mg/L	62 to 125 mg/L	41 mg/L	45 mg/L	85 mg/L	>250 mg/L	175 mg/L	250 to 500 mg/L	22 mg/L	32 to 62 mg/L	> 500 µg/mL	60.0%	49 µg/mL	4 ppm	4 ppm	8 ppm	16 (3 log) ppm				% kill at 250 μg/ml (Red blood cells (RBC)): 35%
FAKKFAKKFKKFAKKFAKFAFAF [D2A21, reference compound]	4.5 mg/L	8 to 16 mg/L	11.3 mg/L		11.9 mg/L	62 to 125 mg/L	121.5 mg/L	>250 mg/L	21.9 mg/L	62 to 125 mg/L	52 µg/mL	7.1%	16.9 µg/mL					93.1%			activity against HSV compared with other peptides [5]: better than five other peptides; activity (statement) (T. vaginalis): has activity against; activity (statement) (C. trachomatis): has activity against; activity (statement) (P. aeruginosa): has activity against; survival rate ([6]; improved from 25%, preliminary results (Arlotti 2001)): 75%; toxicities [6]: not causing any significant toxicities
LRLRLRLRLRLRLRLRLR [LR (9), LR LR LR LR LR LR LR LR LR]	70 mg/L	>125 mg/L	>250 mg/L	>250 mg/L			195 mg/L	250 to 500 mg/L	21 mg/L	62 to 125 mg/L	> 500 µg/mL	96.7%	>500 µg/mL	4 ppm	16 ppm	8 ppm	31(3 log) ppm	24%			IC50 [1, 9]: 28 mg/L; MIC [1, 9]: 125 to 250 mg/L
FKA FKA FKA FKA (FKAFKAFKAFKA; Periodic Peptide) [FKA(4)]														125 ppm	4 ppm	250 ppm			>500 ppm	demonstrate biocidal activity	
FKA FKA (FKAFKA; Periodic Peptide) [FKA(2)]														125 ppm	16 ppm	500 ppm			>500 ppm	demonstrate biocidal activity	
KFAK KFAK KFAK KFAK KFAK KFAK KFAK KFAK KFAK KFAK KFAK KFAK (KFAKKFAKKFAKKFAKKFAKKFAKKFAKKFAKKFAKKFAKKFAKKFAK; Periodic Peptide) [KFAK(12)]														31 ppm		>500 ppm			16 ppm		ppm at 15 min, cell marked (3 log) (Staph. aureus ATCC 6538 [8]): 31(3 log) ppm
